ChEMBL document CHEMBL5303761, “Data for DCP probe BI-3231” (2023)

Assays:
[1] = biological target: 5-hydroxytryptamine receptor 2A (Homo sapiens) (UniProt P28223); details: Compound concentration 10.0 uM
[2] = biological target: Sodium-dependent dopamine transporter (Homo sapiens) (UniProt Q01959); details: Compound concentration 10.0 uM
[3] = biological target: Sodium-dependent serotonin transporter (Homo sapiens) (UniProt P31645); details: Compound concentration 10.0 uM
[4] = biological target: 5-hydroxytryptamine receptor 2A (Homo sapiens) (UniProt P28223); assay: 5HT2AH_AGON Eurofins SafetyScreen44 (BI); details: filed as agonist, Compound concentration 10.0 uM
[5] = biological target: Tyrosine-protein kinase Lck (Homo sapiens) (UniProt P06239); assay: LCK_CE Eurofins SafetyScreen44 (BI); details: Compound concentration 10.0 uM
[6] = biological target: D(1A) dopamine receptor (Homo sapiens) (UniProt P21728); assay: D1/H Eurofins SafetyScreen44 (BI); details: filed as antagonist, Compound concentration 10.0 uM
[7] = biological target: T1, Muscarinic acetylcholine receptor M2 (Homo sapiens) (UniProt P08172); assay: M2/H Eurofins SafetyScreen44 (BI); details: filed as antagonist, Compound concentration 10.0 uM
T1 sequence (whole entry): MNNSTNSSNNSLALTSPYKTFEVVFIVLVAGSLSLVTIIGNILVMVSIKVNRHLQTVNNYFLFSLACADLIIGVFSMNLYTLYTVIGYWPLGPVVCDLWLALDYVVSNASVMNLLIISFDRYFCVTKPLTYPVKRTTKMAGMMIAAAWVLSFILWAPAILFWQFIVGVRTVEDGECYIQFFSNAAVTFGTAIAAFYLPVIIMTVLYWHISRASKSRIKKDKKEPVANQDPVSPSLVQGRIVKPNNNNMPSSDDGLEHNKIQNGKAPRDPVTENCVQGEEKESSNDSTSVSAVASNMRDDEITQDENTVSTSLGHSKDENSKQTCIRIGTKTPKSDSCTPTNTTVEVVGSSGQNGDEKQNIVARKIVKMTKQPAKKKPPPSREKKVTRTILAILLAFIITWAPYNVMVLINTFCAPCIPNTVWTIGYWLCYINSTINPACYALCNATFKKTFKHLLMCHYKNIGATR

[8] = biological target: Alpha-2C adrenergic receptor (Homo sapiens) (UniProt P18825); details: Compound concentration 10.0 uM
[9] = biological target: 5-hydroxytryptamine receptor 2B (Homo sapiens) (UniProt P41595); assay: 5HT2B/H AG Eurofins SafetyScreen44 (BI); details: filed as agonist, Compound concentration 10.0 uM
[10] = biological target: Glutamate NMDA receptor (Rattus norvegicus) (UniProt P35439+Q00959+Q00960+Q00961+Q62645+Q8VHN2+Q9R1M7); assay: NMDA/R Eurofins SafetyScreen44 (BI); type: protein-complex assay; details: Compound concentration 10.0 uM
[11] = biological target: 5-hydroxytryptamine receptor 1D (Homo sapiens) (UniProt P28221); details: Compound concentration 10.0 uM
[12] = biological target: Sigma non-opioid intracellular receptor 1 (Homo sapiens) (UniProt Q99720); details: Compound concentration 10.0 uM
[13] = biological target: Androgen receptor (Homo sapiens) (UniProt P10275); assay: ANDROGEN/H Eurofins SafetyScreen44 (BI); details: Compound concentration 10.0 uM
[14] = biological target: Histamine H3 receptor (Homo sapiens) (UniProt Q9Y5N1); details: Compound concentration 10.0 uM
[15] = biological target: 5-hydroxytryptamine receptor 7 (Homo sapiens) (UniProt P34969); details: Compound concentration 10.0 uM
[16] = biological target: Histamine H2 receptor (Homo sapiens) (UniProt P25021); assay: H2/APT/HS Eurofins SafetyScreen44 (BI); details: filed as antagonist, Compound concentration 10.0 uM
[17] = biological target: Delta-type opioid receptor (Homo sapiens) (UniProt P41143); assay: DELTA2/H Eurofins SafetyScreen44 (BI); details: Compound concentration 10.0 uM
[18] = biological target: Delta-type opioid receptor (Homo sapiens) (UniProt P41143); details: Compound concentration 10.0 uM
[19] = biological target: GABA-A receptor; anion channel (Rattus norvegicus) (UniProt O09028+P15431+P18506+P18508+P19969+P20236+P23574+P23576+P28471+P28473+P30191+P62813+P63079+P63138+Q91ZM7+Q9ES14); assay: BZD/CENTR/R Eurofins SafetyScreen44 (BI); type: protein-complex assay; details: Compound concentration 10.0 uM
[20] = biological target: Histamine H4 receptor (Homo sapiens) (UniProt Q9H3N8); details: Compound concentration 10.0 uM
[21] = biological target: voltage-dependent K+ channel (stored as IKs; KCNQ1/KCNE1) (Rattus norvegicus, UniProt P15383+Q9Z0N7); assay: K+/VOLT/RA Eurofins SafetyScreen44 (BI); type: protein-complex assay; details: rat brain, probe [125I]alpha-dendrotoxin, compound concentration 10 uM, read-out: % Ctrl
[22] = biological target: Alpha-1B adrenergic receptor (Homo sapiens) (UniProt P35368); details: Compound concentration 10.0 uM
[23] = biological target: 5-hydroxytryptamine receptor 2B (Homo sapiens) (UniProt P41595); details: Compound concentration 10.0 uM
[24] = biological target: 5-hydroxytryptamine receptor 1B (Homo sapiens) (UniProt P28222); details: Compound concentration 10.0 uM
[25] = biological target: T1, Muscarinic acetylcholine receptor M2 (Homo sapiens); details: Compound concentration 10.0 uM
[26] = biological target: T2, 5-hydroxytryptamine receptor 3A (Homo sapiens) (UniProt P46098); assay: 5HT3/H Eurofins SafetyScreen44 (BI); details: Compound concentration 10.0 uM
T2 sequence (whole entry): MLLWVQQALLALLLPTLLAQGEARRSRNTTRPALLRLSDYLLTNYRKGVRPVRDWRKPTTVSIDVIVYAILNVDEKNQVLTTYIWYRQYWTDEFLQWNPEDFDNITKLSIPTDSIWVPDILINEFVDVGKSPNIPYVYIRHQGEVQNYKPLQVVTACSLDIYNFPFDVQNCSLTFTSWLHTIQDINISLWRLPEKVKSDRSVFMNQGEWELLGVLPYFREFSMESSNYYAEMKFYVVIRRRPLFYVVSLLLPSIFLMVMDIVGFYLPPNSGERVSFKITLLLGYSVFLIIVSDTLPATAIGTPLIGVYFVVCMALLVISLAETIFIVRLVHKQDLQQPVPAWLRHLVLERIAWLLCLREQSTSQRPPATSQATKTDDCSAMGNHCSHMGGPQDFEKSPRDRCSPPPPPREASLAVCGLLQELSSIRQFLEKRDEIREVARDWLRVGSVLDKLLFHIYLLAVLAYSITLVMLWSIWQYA

[27] = biological target: Glucocorticoid receptor (Homo sapiens) (UniProt P04150); assay: GCORTICOID/H Eurofins SafetyScreen44 (BI); details: Compound concentration 10.0 uM
[28] = biological target: T2, 5-hydroxytryptamine receptor 3A (Homo sapiens); details: Compound concentration 10.0 uM
[29] = biological target: Mu-type opioid receptor (Homo sapiens) (UniProt P35372); assay: MU/H Eurofins SafetyScreen44 (BI); details: Compound concentration 10.0 uM
[30] = biological target: Sodium-dependent dopamine transporter (Homo sapiens) (UniProt Q01959); assay: DATRANS/HUM Eurofins SafetyScreen44 (BI); details: Compound concentration 10.0 uM

Chain of Delta-type opioid receptor (Homo sapiens) (P41143 whole entry): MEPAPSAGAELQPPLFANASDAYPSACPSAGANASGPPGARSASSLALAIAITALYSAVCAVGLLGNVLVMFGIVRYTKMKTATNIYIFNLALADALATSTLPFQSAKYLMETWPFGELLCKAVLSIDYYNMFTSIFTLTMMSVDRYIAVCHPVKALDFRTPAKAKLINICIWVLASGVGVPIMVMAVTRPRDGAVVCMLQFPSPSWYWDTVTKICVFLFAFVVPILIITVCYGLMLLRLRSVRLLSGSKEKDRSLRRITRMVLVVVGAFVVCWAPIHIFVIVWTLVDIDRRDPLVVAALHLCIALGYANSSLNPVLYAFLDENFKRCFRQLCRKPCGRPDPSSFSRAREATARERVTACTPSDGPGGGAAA
Chain of Alpha-2C adrenergic receptor (Homo sapiens) (P18825 whole entry): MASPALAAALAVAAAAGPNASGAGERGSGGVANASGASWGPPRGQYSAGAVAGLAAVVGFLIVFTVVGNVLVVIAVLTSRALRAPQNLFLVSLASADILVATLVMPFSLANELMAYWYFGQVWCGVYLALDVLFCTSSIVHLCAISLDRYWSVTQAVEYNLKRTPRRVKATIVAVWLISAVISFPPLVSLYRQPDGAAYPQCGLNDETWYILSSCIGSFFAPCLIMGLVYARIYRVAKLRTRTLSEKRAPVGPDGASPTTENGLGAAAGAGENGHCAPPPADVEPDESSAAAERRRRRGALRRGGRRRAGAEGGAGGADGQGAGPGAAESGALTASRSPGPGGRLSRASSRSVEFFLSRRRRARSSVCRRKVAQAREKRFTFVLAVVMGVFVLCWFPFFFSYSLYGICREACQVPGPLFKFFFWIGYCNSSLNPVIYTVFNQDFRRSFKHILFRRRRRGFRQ
Chain of Histamine H4 receptor (Homo sapiens) (Q9H3N8 whole entry): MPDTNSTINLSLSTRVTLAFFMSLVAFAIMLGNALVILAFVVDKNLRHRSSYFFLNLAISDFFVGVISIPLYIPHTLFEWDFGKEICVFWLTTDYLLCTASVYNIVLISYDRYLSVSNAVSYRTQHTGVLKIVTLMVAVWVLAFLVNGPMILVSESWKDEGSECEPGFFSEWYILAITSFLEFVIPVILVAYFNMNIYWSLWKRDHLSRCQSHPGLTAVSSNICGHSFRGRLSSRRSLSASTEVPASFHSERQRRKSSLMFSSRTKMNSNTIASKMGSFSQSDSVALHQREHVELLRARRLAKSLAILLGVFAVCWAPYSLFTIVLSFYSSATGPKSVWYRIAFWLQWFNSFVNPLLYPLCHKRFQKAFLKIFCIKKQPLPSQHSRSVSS
Chain of 5-hydroxytryptamine receptor 2B (Homo sapiens) (P41595 whole entry): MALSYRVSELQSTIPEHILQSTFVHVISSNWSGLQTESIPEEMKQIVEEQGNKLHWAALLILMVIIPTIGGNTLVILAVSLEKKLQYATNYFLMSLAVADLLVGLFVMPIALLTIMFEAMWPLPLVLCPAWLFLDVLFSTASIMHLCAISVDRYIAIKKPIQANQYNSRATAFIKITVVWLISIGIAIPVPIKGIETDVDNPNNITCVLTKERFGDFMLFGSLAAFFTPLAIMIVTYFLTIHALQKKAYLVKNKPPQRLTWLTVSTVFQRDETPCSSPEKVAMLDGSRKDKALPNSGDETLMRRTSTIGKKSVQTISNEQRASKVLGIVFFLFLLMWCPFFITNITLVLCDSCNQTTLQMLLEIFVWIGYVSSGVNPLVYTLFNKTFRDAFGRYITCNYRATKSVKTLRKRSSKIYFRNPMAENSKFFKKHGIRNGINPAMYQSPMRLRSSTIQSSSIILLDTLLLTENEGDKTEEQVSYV
Chain of Histamine H3 receptor (Homo sapiens) (Q9Y5N1 whole entry): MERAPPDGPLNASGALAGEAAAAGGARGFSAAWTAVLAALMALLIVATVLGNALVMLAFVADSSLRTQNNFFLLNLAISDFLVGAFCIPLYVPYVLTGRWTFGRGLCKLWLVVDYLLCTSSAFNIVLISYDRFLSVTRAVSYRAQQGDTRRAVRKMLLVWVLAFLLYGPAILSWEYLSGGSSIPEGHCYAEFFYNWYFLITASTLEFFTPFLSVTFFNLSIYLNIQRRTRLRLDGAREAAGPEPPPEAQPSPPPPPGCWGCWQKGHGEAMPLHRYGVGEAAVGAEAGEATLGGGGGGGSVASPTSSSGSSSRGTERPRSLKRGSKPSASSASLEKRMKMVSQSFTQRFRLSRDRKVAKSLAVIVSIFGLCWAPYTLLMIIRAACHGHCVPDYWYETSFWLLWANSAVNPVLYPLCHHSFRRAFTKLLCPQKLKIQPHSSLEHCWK
Chain of Alpha-1B adrenergic receptor (Homo sapiens) (P35368 whole entry): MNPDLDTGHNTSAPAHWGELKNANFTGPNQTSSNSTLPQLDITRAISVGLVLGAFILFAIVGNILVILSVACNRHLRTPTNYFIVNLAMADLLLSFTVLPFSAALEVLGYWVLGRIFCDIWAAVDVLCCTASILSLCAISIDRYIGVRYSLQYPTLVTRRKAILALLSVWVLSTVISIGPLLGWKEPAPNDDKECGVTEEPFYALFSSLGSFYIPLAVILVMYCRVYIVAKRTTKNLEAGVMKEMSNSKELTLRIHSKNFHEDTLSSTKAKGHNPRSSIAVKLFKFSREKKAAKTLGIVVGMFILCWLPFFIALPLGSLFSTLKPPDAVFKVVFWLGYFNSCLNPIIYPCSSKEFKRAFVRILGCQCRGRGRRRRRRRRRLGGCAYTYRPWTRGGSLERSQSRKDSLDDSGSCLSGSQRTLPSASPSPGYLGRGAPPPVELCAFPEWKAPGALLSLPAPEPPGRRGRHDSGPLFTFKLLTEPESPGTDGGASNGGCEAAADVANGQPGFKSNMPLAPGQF
Chain of Sodium-dependent dopamine transporter (Homo sapiens) (Q01959 whole entry): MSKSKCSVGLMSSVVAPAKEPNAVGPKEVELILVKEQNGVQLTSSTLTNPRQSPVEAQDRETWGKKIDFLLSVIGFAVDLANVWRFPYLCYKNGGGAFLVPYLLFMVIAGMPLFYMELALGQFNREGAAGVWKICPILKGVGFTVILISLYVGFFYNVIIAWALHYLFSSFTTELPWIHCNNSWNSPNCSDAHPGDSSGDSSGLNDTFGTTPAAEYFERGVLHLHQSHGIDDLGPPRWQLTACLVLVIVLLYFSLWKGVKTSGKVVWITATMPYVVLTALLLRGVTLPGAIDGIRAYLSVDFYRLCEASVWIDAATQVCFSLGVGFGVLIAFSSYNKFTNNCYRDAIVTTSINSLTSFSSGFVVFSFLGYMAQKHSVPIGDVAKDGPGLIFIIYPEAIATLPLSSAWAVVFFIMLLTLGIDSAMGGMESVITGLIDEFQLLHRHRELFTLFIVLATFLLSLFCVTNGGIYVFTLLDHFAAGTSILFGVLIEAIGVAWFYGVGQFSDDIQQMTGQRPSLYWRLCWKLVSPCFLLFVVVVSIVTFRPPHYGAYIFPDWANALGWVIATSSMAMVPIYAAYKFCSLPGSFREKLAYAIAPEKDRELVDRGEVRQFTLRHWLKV
Chain of 5-hydroxytryptamine receptor 1D (Homo sapiens) (P28221 whole entry): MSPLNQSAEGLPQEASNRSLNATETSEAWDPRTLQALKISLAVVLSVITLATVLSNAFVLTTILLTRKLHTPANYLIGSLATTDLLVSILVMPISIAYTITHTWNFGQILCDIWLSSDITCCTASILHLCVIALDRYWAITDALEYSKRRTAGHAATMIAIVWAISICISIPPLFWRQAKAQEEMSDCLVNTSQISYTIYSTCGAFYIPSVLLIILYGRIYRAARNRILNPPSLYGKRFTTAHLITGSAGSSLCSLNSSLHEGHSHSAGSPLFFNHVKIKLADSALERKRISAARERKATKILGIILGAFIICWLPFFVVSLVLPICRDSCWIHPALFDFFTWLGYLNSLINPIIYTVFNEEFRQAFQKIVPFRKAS
Chain of 5-hydroxytryptamine receptor 7 (Homo sapiens) (P34969 whole entry): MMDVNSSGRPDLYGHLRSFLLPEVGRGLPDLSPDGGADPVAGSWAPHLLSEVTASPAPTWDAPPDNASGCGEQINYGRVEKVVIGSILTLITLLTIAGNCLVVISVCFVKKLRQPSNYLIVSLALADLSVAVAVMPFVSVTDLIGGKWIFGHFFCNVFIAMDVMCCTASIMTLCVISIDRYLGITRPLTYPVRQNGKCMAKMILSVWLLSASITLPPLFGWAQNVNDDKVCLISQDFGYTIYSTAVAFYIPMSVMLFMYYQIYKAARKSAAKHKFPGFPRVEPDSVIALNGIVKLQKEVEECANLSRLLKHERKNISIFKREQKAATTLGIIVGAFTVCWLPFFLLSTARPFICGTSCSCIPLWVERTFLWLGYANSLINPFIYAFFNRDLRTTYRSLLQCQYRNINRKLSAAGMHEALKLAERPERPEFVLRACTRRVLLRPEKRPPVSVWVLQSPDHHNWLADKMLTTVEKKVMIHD
Chain of Sigma non-opioid intracellular receptor 1 (Homo sapiens) (Q99720 whole entry): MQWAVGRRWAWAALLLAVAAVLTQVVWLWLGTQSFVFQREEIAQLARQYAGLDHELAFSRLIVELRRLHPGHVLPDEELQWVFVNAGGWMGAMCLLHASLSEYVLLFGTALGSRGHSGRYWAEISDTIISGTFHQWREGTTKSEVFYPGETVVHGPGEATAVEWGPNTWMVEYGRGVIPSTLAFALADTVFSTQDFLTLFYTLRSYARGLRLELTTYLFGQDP
Chain of 5-hydroxytryptamine receptor 2A (Homo sapiens) (P28223 whole entry): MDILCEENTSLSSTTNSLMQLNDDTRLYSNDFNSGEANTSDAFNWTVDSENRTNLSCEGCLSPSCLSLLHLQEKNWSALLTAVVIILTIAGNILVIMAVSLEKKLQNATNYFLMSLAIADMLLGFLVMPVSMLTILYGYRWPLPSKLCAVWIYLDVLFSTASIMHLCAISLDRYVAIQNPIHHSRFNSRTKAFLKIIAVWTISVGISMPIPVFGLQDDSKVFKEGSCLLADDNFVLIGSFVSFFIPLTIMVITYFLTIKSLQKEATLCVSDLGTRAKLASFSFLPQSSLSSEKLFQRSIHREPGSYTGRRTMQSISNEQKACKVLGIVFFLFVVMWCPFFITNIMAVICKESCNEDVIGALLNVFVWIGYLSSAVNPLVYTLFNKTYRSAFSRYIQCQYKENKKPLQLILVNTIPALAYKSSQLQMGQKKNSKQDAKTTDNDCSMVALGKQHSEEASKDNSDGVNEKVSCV

With `CCn1c(=O)c(C)cn(Cc2nnc(-c3ccc(F)c(O)c3F)s2)c1=O` the inhibition [1] was 0.32%, the inhibition [2] was 24.9% and the inhibition [3] was -3.65%. For the same molecule, the residual activity [4] was 84%, the residual activity [5] was 91% and the residual activity [6] was 105%. It also gave a residual activity [7] of 106%, an inhibition [8] of 1.31% and a residual activity [9] of 83%. The residual activity [10] was 104%, the inhibition [11] was 6.08% and the inhibition [12] was 17.2%. It also gave a residual activity [13] of 102%, an inhibition [14] of 0.98% and an inhibition [15] of 5.8%. It also gave a residual activity [16] of 105%, a residual activity [17] of 95% and an inhibition [18] of 9.87%. For the same molecule, the residual activity [19] was 115%, the inhibition [20] was 3.99% and the activity at 10 µM [21] was 103% (not active). It also gave an inhibition [22] of -10%, an inhibition [23] of -8.82% and an inhibition [24] of 16%. The inhibition [25] was -5.24%, the residual activity [26] was 106% and the residual activity [27] was 96%. For the same molecule, the inhibition [28] was 10.6%, the residual activity [29] was 87% and the residual activity [30] was 82%.

For `CCn1c(=O)c(C)cn(Cc2nnc(-c3ccc(F)c(OC)c3F)s2)c1=O`, the inhibition [1] was 3.82%, the inhibition [2] was 12.4% and the inhibition [3] was -7.45%. It also gave a residual activity [4] of 101%, a residual activity [5] of 110% and a residual activity [6] of 97%. For the same molecule, the residual activity [7] was 113%, the inhibition [8] was 2.05% and the residual activity [9] was 45%. It also gave a residual activity [10] of 103%, an inhibition [11] of 15.8% and an inhibition [12] of 16.4%. The residual activity [13] was 103%, the inhibition [14] was 11% and the inhibition [15] was -1.29%. For the same molecule, the residual activity [16] was 107%, the residual activity [17] was 103% and the inhibition [18] was -0.06%. The residual activity [19] was 94%, the inhibition [20] was -9.96% and the activity at 10 µM [21] was 104% (not active). The inhibition [22] was -0.13%, the inhibition [23] was 28.5% and the inhibition [24] was 8.52%. The inhibition [25] was -0.14%, the residual activity [26] was 98% and the residual activity [27] was 88%. The inhibition [28] was 7.41%, the residual activity [29] was 102% and the residual activity [30] was 86%.
